Values of other authors, collected in US20100120050A1, “Biomarkers For Assessing Altherosclerotic Potential” (ENTELOS, INC., priority 2008, published 2010).

Conditions: clinical trials and post-marketing; cited from earlier work

Cc1c(C(=O)NN2CCCCC2)nn(-c2ccc(Cl)cc2Cl)c1-c1ccc(Cl)cc1 [rimonabant]
effect on plaque endpoints: little observed effect on plaque endpoints
